# Experimental data: patent publication US20090082329A1 (AVENTIS PHARMA S.A., priority 2006, published 2009)
# Read-outs that look alike come from different tables or passages of the source.
# What was measured:
# MEF-IGF1R cells = assay: Proliferation/viability of MEF-IGF1R (Thymidine [14C] incorporation); assay type: cell-based; settings: rhIGF1 100 ng/mL, incubation 72 hours, read-out: Test C IC50
# Procedure: C) Measurement of the Proliferation/Viability of MEF-IGF1R
# Cell culture: the MEF-IGF1R cells (stable clone of cells transfected with the receptor hIGF-1R) are cultured at 37° C. under 5% CO2 in EMEM medium containing 10% FCS.
# Test procedure: the cells are seeded at 5000 cells per well in 96-well Cytostar plates (Amersham) with 0.2 mL of EMEM culture medium at 37° C. for 18 hours. The cells are then washed twice with EMEM medium and left to culture without serum for 24 hours. The compounds are then added at various concentrations in the presence of rhIGF1 (100 ng/mL) and 0.1 μCi of Thymidine [^14C] (specific activity ˜50 mCi/mmol) to give 0.2 mL of volume per well. After incubation for 72 hours in the presence of the compound, at 37° C. under 5% CO2, the incorporation of Thymidine [^14C] is measured by counting the radioactivity on a Microbeta trilux counter (Perkin-Elmer). The IC50 is determined from 10 increasing concentrations of the compound.
# (§1) (i) The tests are performed in duplicate and the mean of the two tests is calculated.
# (§2) (ii) The value of the signal of the maximum response is calculated from the positive control: cells stimulated with IGF1 without compound.
# (§3) (iii) Value of the signal of the minimum response is calculated from the negative control: cells not stimulated with IGF1 without compound.
# (§4) (iv) By using these values as maximum (100%) and minimum (0%), respectively, the data were normalized so as to give a percentage of the maximum response.
# (§5) (v) A curve of dose response is plotted and the IC50 (the concentration of which the compound induces a 50% decrease in the signal) of the compound is calculated by non-linear regression analysis.
# IGF-1R in MCF7 cells = IGF-1R in MCF7 cells (Homo sapiens, UniProt P08069); assay: Autophosphorylation of IGF-1R in MCF7 cells after stimulation with IGF-1 (ELISA); assay type: cell-based; set-up: endogenous in cells; host or cells: MCF-7 cells; settings: MCF-7 cells, compound added one hour before stimulation with IGF1; read-out: Test B IC50
# IGF-1R in MCF7 cells, sequence (P08069 31-1367): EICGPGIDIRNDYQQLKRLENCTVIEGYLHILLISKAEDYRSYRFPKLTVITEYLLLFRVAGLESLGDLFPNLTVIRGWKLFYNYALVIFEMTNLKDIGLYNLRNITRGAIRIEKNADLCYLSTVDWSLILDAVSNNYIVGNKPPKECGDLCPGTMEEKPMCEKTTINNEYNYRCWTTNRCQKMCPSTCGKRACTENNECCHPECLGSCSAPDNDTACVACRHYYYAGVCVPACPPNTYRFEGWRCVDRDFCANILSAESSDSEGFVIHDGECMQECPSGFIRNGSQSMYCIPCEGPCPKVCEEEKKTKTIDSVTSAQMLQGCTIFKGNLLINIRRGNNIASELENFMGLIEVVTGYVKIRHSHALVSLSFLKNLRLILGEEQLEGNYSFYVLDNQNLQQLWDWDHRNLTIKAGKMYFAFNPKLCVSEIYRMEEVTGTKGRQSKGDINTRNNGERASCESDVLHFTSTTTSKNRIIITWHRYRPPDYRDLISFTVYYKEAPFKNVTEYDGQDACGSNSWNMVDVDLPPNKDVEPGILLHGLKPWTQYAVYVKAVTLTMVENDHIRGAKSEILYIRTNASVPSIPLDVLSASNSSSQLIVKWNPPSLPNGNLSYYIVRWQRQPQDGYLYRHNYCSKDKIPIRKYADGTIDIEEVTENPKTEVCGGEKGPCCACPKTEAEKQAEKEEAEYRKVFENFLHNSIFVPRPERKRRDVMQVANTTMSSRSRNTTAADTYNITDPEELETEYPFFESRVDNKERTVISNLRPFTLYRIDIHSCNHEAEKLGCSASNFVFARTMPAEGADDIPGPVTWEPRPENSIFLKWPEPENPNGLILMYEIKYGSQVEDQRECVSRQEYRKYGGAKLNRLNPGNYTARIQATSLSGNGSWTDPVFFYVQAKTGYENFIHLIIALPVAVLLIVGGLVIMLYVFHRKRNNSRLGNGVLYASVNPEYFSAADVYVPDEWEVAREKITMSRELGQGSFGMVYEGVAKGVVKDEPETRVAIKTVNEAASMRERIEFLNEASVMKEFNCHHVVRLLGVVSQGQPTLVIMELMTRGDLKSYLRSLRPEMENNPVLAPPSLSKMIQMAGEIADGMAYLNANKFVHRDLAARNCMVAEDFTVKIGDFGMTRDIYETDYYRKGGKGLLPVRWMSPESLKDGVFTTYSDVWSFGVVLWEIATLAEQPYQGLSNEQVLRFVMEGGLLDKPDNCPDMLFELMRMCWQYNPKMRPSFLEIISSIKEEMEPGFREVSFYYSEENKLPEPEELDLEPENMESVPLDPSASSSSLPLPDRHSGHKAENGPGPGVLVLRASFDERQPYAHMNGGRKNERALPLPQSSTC
# Procedure: B) Measurement of the Autophosphorylation of IGF-1R in MCF7 Cells after Stimulation with IGF-1
# Cell Culturing and Execution of the Test:
# The autophosphorylation of IGF1R in the IGF1-induced cells is evaluated by means of an ELISA technique (Enzyme Linked ImmunoSorbent Assay). The MCF-7 are seeded at 60 000 cells per well in 6-well plates and incubated at 37° C., 5% CO2 in medium containing 10% serum. After one night in 10% serum, the cells are deprived of serum for 24 hours. The compounds are added to the medium one hour before stimulation with IGF1. After 10 minutes of stimulation with IGF1, the cells are lysed with a buffer (Hepes 50 mM pH 7.6, Triton X100 1%, orthovanadate 2 mM, protease inhibitor cocktail). The cell lysates are incubated on a 96-well plate precoated with an anti-IGF1R antibody, followed by incubation with an anti-phosphotyrosine antibody coupled to the enzyme peroxidase. The level of peroxidase activity (measured by OD with a luminescent substrate) reflects the phosphorylation status of the receptor.
# as §1, §2, §3, §4, §5
# [1] = molecular target: T1, human cytoplasmic domain of IGF-1R (Homo sapiens, UniProt P08069); assay: Kinase IGF-1R test: inhibition of autophosphorylation of the enzyme (HTRF); assay type: biochemical; settings: ATP 120 μM
# T1 construct: The human cytoplasmic domain of IGF-1R was cloned by fusion with glutathione S-transferase (GST); made in house; host or cells: SF21 insect cells (baculovirus, pFastBac-GST)
# T1 sequence (P08069 960-1367 limits assumed): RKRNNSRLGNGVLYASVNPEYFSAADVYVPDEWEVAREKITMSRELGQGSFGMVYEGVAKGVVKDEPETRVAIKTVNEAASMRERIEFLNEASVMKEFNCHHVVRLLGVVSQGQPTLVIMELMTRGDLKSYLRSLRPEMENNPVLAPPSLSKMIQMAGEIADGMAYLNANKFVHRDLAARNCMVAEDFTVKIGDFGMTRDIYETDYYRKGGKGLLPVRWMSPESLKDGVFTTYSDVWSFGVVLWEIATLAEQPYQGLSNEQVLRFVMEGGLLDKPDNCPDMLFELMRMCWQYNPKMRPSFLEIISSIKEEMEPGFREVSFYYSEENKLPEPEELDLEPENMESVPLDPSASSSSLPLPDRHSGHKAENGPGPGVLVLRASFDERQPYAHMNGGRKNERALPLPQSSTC
# Procedure: A) Experimental Protocol for the Kinase IGF-1R Test:
# The inhibitory activity of the compounds on IGF1R is determined by measuring the inhibition of autophosphorylation of the enzyme using a time-resolved fluorescence test (HTRF). The human cytoplasmic domain of IGF-1R was cloned by fusion with glutathione S-transferase (GST) in the baculovirus expression vector pFastBac-GST. The protein is expressed in the SF21 cells and purified to about 80% homogeneity. For the enzymatic test, the test compound at 10 mM dissolved in DMSO is diluted in ⅓ steps in a 50 mM Hepes, pH 7.5, 5 mM MnCl2, 50 mM NaCl, 3% Glycerol, 0.025% Tween 20 buffer. To measure the inhibition, the successive dilutions of the compound are preincubated for 30 minutes and 90 minutes in the presence of 5 nM of enzyme, the final DMSO concentration not exceeding 1%. The enzymatic reaction is initiated to have a final ATP concentration of 120 μM, and is stopped after 5 minutes by addition of 100 mM Hepes, pH 7.0 buffer containing 0.4 M of potassium fluoride, 133 mM EDTA, 0.1% BSA, the XL665-labelled antibody anti-GST and the anti-phosphotyrosine antibody conjugated to europium cryptate Eu—K (Cis-Bio Int.). The characteristics of the two fluorophores, XL-665 and Eu—K, are available in G. Mathis et al., Anticancer Research, 1997, 17, pages 3011-3014. The energy transfer between the excited europium cryptate to the acceptor XL665 is proportional to the degree of autophosphorylation of IGF-1R. The specific long-lasting signal of XL-665 is measured in a GENios Pro TECAN plate counter. The inhibition of autophosphorylation of IGF-1R at time 30 minutes and 90 minutes with the test compounds of the invention is calculated relative to a 1% in DMSO control, whose activity is measured in the absence of compound. The curve representing the percentage of inhibition as a function of the log of the concentration is established to determine the concentration corresponding to 50% inhibition (IC50),
# [2] = preincubation 30 minutes with 5 nM enzyme, read-out: Test A 30′ IC50
# [3] = preincubation 90 minutes with 5 nM enzyme, read-out: Test A 90′ IC50
Compound,IC50 (IGF-1R in MCF7 cells) [nM],"IC50 [1, 2] [nM]","IC50 [1, 3] [nM]",IC50 (MEF-IGF1R cells) [nM]
"CC1(C)C(=O)N(c2ccc(SC(F)(F)F)cc2)C(=O)N1Cc1ccnc(NC(=O)N2CCCCC2)c1 [Example 2, N-{4-[(5,5-dimethyl-2,4-dioxo-3-{4-[(trifluoro-methyl)thio]phenyl}imidazolidin-1-yl)methyl]pyridin-2-yl}piperidine-1-carboxamide]",< 10,10 to 100,10 to 100,10 to 100
"CNC(=O)Nc1cc(CN2C(=O)N(c3ccc(S(=O)(=O)C(F)(F)F)cc3)C(=O)C2(C)C)ccn1 [Example 4, 1-{4-[(5,5-dimethyl-2,4-dioxo-3-{4-[(trifluoro-methyl)sulfonyl]phenyl}imidazolidin-1-yl)methyl]pyridin-2-yl}-3-methylurea]",< 10,> 100,10 to 100,10 to 100
"CC1(C)C(=O)N(c2ccc(SC(F)(F)F)cc2)C(=O)N1Cc1ccnc(Nc2cc(F)ccc2F)c1 [Example 5, 1-({2-[(2,5-difluorophenyl)amino]pyridin-4-yl}-methyl)-5,5-dimethyl-3-{4-[(trifluoromethyl)thio]phenyl}imidazolidine-2,4-dione]",> 100,10 to 100,,10 to 100
"C[C@H](CO)Nc1nccc(CN2C(=O)N(c3ccc(S(=O)(=O)C(F)(F)F)cc3)C(=O)C2(C)C)n1 [Example 9, 1-[(2-{[(1R)-2-hydroxy-1-methylethyl]amino}-pyrimidin-4-yl)methyl]-5,5-dimethyl-3-{4-[(trifluoromethyl)-sulfonyl]phenyl}imidazolidine-2,4-dione]",> 100,> 100,10 to 100,10 to 100
"CC1(C)C(=O)N(c2ccc(SC(F)(F)F)cc2)C(=O)N1Cc1ccnc(Nc2cccnc2)n1 [Example 11, 5,5-dimethyl-1-{[2-(pyridin-3-ylamino)pyrimidin-4-yl]methyl}-3-{4-[(trifluoromethyl)thio]phenyl}imidazolidine-2,4-dione]",< 10,10 to 100,< 10,< 10
"CC1(C)C(=O)N(c2ccc(SC(F)(F)F)cc2)C(=O)N1Cc1ccnc(Nc2cncnc2)c1 [Example 14, 5,5-dimethyl-1-{[2-(pyrimidin-5-ylamino)pyridin-4-yl]methyl}-3-{4-[(trifluoromethyl)thio]phenyl}imidazolidine-2,4-dione]",> 100,> 100,> 100,> 100
"CC1(C)C(=O)N(c2ccc(SC(F)(F)F)cc2)C(=O)N1Cc1ccnc(Nc2cncnc2)n1 [Example 15, 5,5-dimethyl-1-{[2-(pyrimidin-5-ylamino)pyrimidin-4-yl]methyl}-3-{4-[(trifluoromethyl)thio]phenyl}imidazolidine-2,4-dione]",10 to 100,10 to 100,10 to 100,> 100
"CC1(C)C(=O)N(c2ccc(S(=O)(=O)C(F)(F)F)cc2)C(=O)N1Cc1ccnc(Nc2cncnc2)n1 [Example 16, 5,5-dimethyl-1-{[2-(pyrimidin-5-ylamino)pyrimidin-4-yl]methyl}-3-{4-[(trifluoromethyl)sulfonyl]phenyl}imidazolidine-2,4-dione]",10 to 100,10 to 100,10 to 100,> 100
"CC1(C)C(=O)N(c2ccc(SC(F)(F)F)cc2)C(=O)N1Cc1ccnc(NC(=O)NCCCN2CCCC2)c1 [Example 18, 1-{4-[(5,5-dimethyl-2,4-dioxo-3-{4-[(trifluoro-methyl)thio]phenyl}imidazolidin-1-yl)methyl]pyridin-2-yl}-3-(3-pyrrolidin-1-ylpropyl)urea]",10 to 100,10 to 100,10 to 100,> 100

# Second part, led by results:
IC50 (IGF-1R in MCF7 cells) [nM],"IC50 [1, 2] [nM]","IC50 [1, 3] [nM]",Compound,IC50 (MEF-IGF1R cells) [nM]
> 100,> 100,> 100,"CC1(C)C(=O)N(c2ccc(SC(F)(F)F)cc2)C(=O)N1Cc1ccnc(Nc2cc(Cl)ccc2Cl)c1 [Example 1, 1-({2-[(2,5-dichlorophenyl)amino]pyridin-4-yl}-methyl)-5,5-dimethyl-3-{4-[(trifluoromethyl)thio]phenyl}imidazolidine-2,4-dione]",10 to 100
> 100,> 100,> 100,"CC1(C)C(=O)N(c2ccc(SC(F)(F)F)cc2)C(=O)N1Cc1ccnc(NC(=O)c2ccc(Cl)c(Cl)c2)c1 [Example 3, 3,4-dichloro-N-{4-[(5,5-dimethyl-2,4-dioxo-3-{4-[(trifluoromethyl)thio]phenyl}imidazolidin-1-yl)methyl]pyridin-2-yl}benzamide]",10 to 100
> 100,> 100,,"CC1(C)C(=O)N(c2ccc(SC(F)(F)F)cc2)C(=O)N1Cc1ccnc(NC(=O)c2cc(Cl)cc(Cl)c2)c1 [Example 6, 3,5-dichloro-N-{4-[(5,5-dimethyl-2,4-dioxo-3-{4-[(trifluoromethyl)thio]phenyl}imidazolidin-1-yl)methyl]pyridin-2-yl}benzamide]",< 10
> 100,> 100,10 to 100,"Cc1ccc(F)c(C(=O)Nc2cc(CN3C(=O)N(c4ccc(SC(F)(F)F)cc4)C(=O)C3(C)C)ccn2)c1Cl [Example 7, 2-chloro-N-{4-[(5,5-dimethyl-2,4-dioxo-3-{4-[(tri-fluoromethyl)thio]phenyl}imidazolidin-1-yl)methyl]pyridin-2-yl}-6-fluoro-3-methylbenzamide]",10 to 100
< 10,10 to 100,< 10,"CN(C)C(=O)c1cccc(Nc2cc(CN3C(=O)N(c4ccc(SC(F)(F)F)cc4)C(=O)C3(C)C)ccn2)c1 [Example 8, 3-({4-[(5,5-dimethyl-2,4-dioxo-3-{4-[(trifluoro-methyl)thio]phenyl}imidazolidin-1-yl)methyl]pyridin-2-yl}amino)-N,N-dimethylbenzamide]",10 to 100
10 to 100,10 to 100,10 to 100,"CCOC(=O)Nc1cc(CN2C(=O)N(c3ccc(SC(F)(F)F)cc3)C(=O)C2(C)C)ccn1 [Example 18 Stage a), ethyl {4-[(5,5-dimethyl-2,4-dioxo-3-{4-[(trifluoromethyl)thio]phenyl}imidazolidin-1-yl)methyl]pyridin-2-yl}carbamate]",10 to 100
